Tests used:
Assay type in all cases: in vivo
Human Subjects [1] = experiment: Stepmill Protocol: time of onset and offset of knee discomfort
Description: The study duration was thirty-seven (37) days with a total of 4 visits per subject. The initial screening visit (Visit 1) occurred 7 days prior to the initiation of the study (Day −7). Subjects arrived in the clinic having fasted for 10 hours in preparation for Visit 1. Subjects underwent the informed consent process and were screened for the presence of all the inclusion criteria and the absence of all the exclusion criteria. The screening process also included taking a detailed medical history, recording prior and concomitant medications, performing a physical examination, and documenting vital signs, and anthropometric measures. To determine eligibility, subjects continuously used the Stepmill at a set rate for 10 minutes until they complained of knee discomfort (in at least one knee) that scored at least 5 on an 11 point numeric pain rating scale. The time of onset of joint pain was recorded. Subjects were also instructed to inform the clinician when their discomfort began to subside and when their discomfort completely resolved.
Baseline assessments included evaluating the pain or discomfort experienced by subjects during exercise testing. Subjects were instructed to exercise on a StepMill® model 7000PT (StairMaster® Health & Fitness Products, Inc., Kirkland, Wash.) at a set rate (Level 4) for 10 minutes. The following knee discomfort measures were recorded from the beginning of the Stepmill test: (1) time of onset of initial joint pain; (2) time of onset of maximum joint pain; (3) time at which initial improvement in knee joint pain was achieved; and (4) time of complete recovery from knee joint pain. Subjects that reported a discomfort level of 5 on an 11 point (0-10) Likert scale in at least one knee within the 10-minute period were selected. Once the requisite pain level was achieved, the subject was asked to continue stepping for an additional two minutes in order to record the maximum pain level reached before disembarking from the stepmill. Subjects who experienced a pain score of 5 (or greater) within one minute of starting the stress test were excluded.
(§1) Subjects who met all of the study inclusion criteria and none of the exclusion criteria were randomly assigned to either the C16:1n7-palmitoleate-treatment or placebo groups. The C16:1n7-palmitoleate composition included palmitoleic acid, gelatin, glycerin and purified water whereas the placebo included medium chain triglycerides. […] The subjects and the clinical staff were unaware of what group a particular subject was allocated to. Baseline assessments for joint pain and knee range of motion in a subject were obtained via the 6-Minute Timed Walk, Stepmill Protocol, and goniometry. At the end of the visit, subjects were provided with a 7-day supply of the C16:1n7-palmitoleate composition or placebo and daily dosing diaries. Subjects were instructed to ingest a single capsule of the C16:1n7-palmitoleate composition or the placebo per day.
(§2) Subjects returned to the clinic at Visit 3 (Day 7) for repeat assessments of joint pain, range of motion, activity levels and health-related quality of life scores. After the performance-based physical functioning measures were evaluated, the subjects were provided with a 23-day supply of the C16:1n7-palmitoleate composition or placebo. Subjects returned to the clinic at Visit 4 (Day 30), which marked the end of the study, for reevaluation of the performance-based physical functioning measures.
The time of onset of discomfort or pain level refers to the time at which the minimum or maximum discomfort or pain level is reached. The time of onset of minimum discomfort or pain level refers to the time at which minimum discomfort or pain level is reached. The time of onset of maximum discomfort or pain level refers to the time at which maximum discomfort or pain level is reached.
As used herein, the time of offset of discomfort is the time at which a level of relief is reached after performing the Stepmill Protocol described herein. […]

Human Subjects [2] = experiment: SF-12 survey (physical and mental component scores)
Description: (§3) Goniometry was used to measure knee range of motion. To measure Knee Extension, subjects were instructed to extend the left or right knee to full extension without changing the position of their pelvis and lumbar spine. An inclinometer was placed along the subject's shin so as to document the range of motion in degrees. To measure Knee Flexion, subjects were asked to lie on their stomach with their shins off the end of the table, and were instructed to fully extend their knees. The subject was then asked to actively flex his/her knee to a full flexion position. The following scales and questionnaires: Stanford Exercise Behavior Scale—Stretching and Aerobics, Knee-related QOL subscale of KOOS Knee Survey, SF-12, and Knee Discomfort Improvement Scale were completed by the subjects at the initial screening.
Quality of life (QOL) was assessed using Change in SF-12 and Knee-related QOL subscale of KOOS Knee Survey, and Knee Discomfort Improvement Scale. The SF-12 is a multipurpose short form survey with 12 questions, all selected from the SF-36 Health Survey. The questions were combined, scored, and weighted to create two scales that provide glimpses into the subject's mental and physical functioning and overall health-related-quality of life. Physical and Mental Health Component Summary Scores were computed using the scores of the twelve questions and a range from 0 to 100, where zero corresponds to the lowest level of health measured by the scales and 100 corresponds to the highest level of health.

Human Subjects [3] = experiment: Knee range of motion by goniometry (extension and flexion)
Description: as §3, §1, §2
Goniometric measurements, which record the active and passive range of motion in joints like the knee, are often used in evaluating joint function.

Human Subjects [4] = experiment: 6-Minute Timed Walk; conditions: between treated and placebo groups, any time point
Description: Other performance-based physical functioning measures including the 6-Minute Timed Walk and Knee Range of Motion (ROM) were also performed by the subjects. In the 6-Minute Timed Walk, subjects walked up and down a hallway for 6 minutes and were instructed to walk as rapidly as possible within their comfort zone, and as rapidly as possible without causing themselves any pain.
Subjects who met all of the study inclusion criteria and none of the exclusion criteria were randomly assigned to either the C16:1n7-palmitoleate-treatment or placebo groups. The C16:1n7-palmitoleate composition included palmitoleic acid, gelatin, glycerin and purified water whereas the placebo included medium chain triglycerides. […] The subjects and the clinical staff were unaware of what group a particular subject was allocated to. Baseline assessments for joint pain and knee range of motion in a subject were obtained via the 6-Minute Timed Walk, Stepmill Protocol, and goniometry. […]
Subjects returned to the clinic at Visit 3 (Day 7) for repeat assessments of joint pain, range of motion, activity levels and health-related quality of life scores. After the performance-based physical functioning measures were evaluated, the subjects were provided with a 23-day supply of the C16:1n7-palmitoleate composition or placebo. […]

Human Subjects [5] = experiment: Knee Discomfort Improvement Scale; conditions: group n=20
Description: as §3
Knee Discomfort Improvement Scale refers to the response to the question “Is your overall knee discomfort improving?”, rated using a 3-point scale where zero is “Not at All”, 1 is “Moderately” and 2 is “Definitely”.

Human Subjects [6] = experiment: Knee-related QOL subscale of KOOS Knee Survey
Description: as §3
Knee injury and Osteoarthritis Outcome Score (KOOS) is an instrument to assess the patients' opinion about their knee and knee-associated problems. For this study, only the Knee Related QOL subscale was used.

Human Subjects [7] = experiment: Stanford Exercise Behavior Scale - Stretching and Aerobics
Description: as §3
Experimental endpoints included Change in Time of Onset and Offset of Discomfort, Changes in 6-Minute Timed Walk, Change in Knee Range of Motion as measured by goniometry including Left and Right Knee Extension and Left and Right Knee Flexion. Stanford Exercise Scale—Stretching and Aerobics was used to measure the effect of the C16:1n7-palmitoleate composition on physical activity levels.

[8] = between treated and placebo groups, any time point
[9] = within-group, baseline to any time point

`CCCCCC/C=C\CCCCCCCC(=O)O` [C16:1n7-palmitoleate, palmitoleic acid] was tested, and the “average time to report maximum discomfort or pain level” value (Human Subjects [1]; after 30 days, placebo 5.43±2.53 minutes) was 6.89 ± 2.59 min, the “time of onset of minimum discomfort or pain level” value (Human Subjects [1]; between treated and placebo groups) was “no statistically significant difference” and the “time of offset of maximum discomfort” value (Human Subjects [1]; [8]) was “no statistically significant difference”. The “time of offset of minimum discomfort” value (Human Subjects [1]; [8]) was “no statistically significant difference”, the “changes in the time of onset of maximum discomfort from Day 0 to Day 30” value (Human Subjects [1]; between treated and placebo groups, p=0.007) was “statistically significant difference” and the “time to reach maximum discomfort or pain level” value (Human Subjects [1]; between treated and placebo groups, treated taking more time) was “significantly different”. For the same compound, the “time of onset of minimum discomfort or pain level” value (Human Subjects [1]; within-group, 7 days vs Day 0, p=0.013, one capsule per day) was “statistically significant increase”, the “time of onset of minimum discomfort or pain level” value (Human Subjects [1]; within-group, 30 days vs Day 0, p=0.005, one capsule per day) was “statistically significant increase” and the “time of onset of maximum discomfort” value (Human Subjects [1]; within-group, 30 days vs Day 0, p=0.012) was “significantly increased”. For the same compound, the “time of offset of maximum discomfort” value (Human Subjects [1]; within-group, 30 days vs Day 0, p=0.014) was “decrease”, the “time of minimum offset of discomfort” value (Human Subjects [1]; [9]) was “no statistically significant changes” and the “mental component score of the SF-12 survey” value (Human Subjects [2]; [8]) was “no statistically significant differences”. For the same compound, the “physical component score of the SF-12 survey” value (Human Subjects [2]; [8]) was “no statistically significant differences”, the “increase in the physical component score of the SF-12 survey” value (Human Subjects [2]; within-group, 30 days vs Day 0, p=0.031) was 8.93% and the “mental component score of the SF-12 survey” value (Human Subjects [2]; [9]) was “no statistically significant changes”. For the same compound, the “change in left knee flexion” value (Human Subjects [3]; after 7 days of supplementation) was “apparent”, the right knee extension (Human Subjects [3]; [8]) was “no statistically significant difference” and the right knee flexion (Human Subjects [3]; [8]) was “no statistically significant difference”. For the same compound, the left knee flexion (Human Subjects [3]; within-group, 30 days vs Day 0, p=0.015) was “significant increase”, the right knee flexion (Human Subjects [3]; within-group, 30 days vs Day 0, p=0.019) was “significant increase” and the left knee extension (Human Subjects [3]; within-group, 30 days vs Day 0, p=0.028) was “significant increase”. For the same compound, the right knee extension (Human Subjects [3]; [9]) was “no statistically significant changes”, the “distance covered during the 6-minute timed walk” value (Human Subjects [4]) was “no statistically significant difference” and the “number of subjects that reported moderate improvements in knee discomfort” value (Human Subjects [5]; Day 0 (baseline)) was 4. For the same compound, the “number of subjects that reported definite improvements in knee discomfort” value (Human Subjects [5]; Day 7) was 2, the “number of subjects that reported moderate improvements in knee discomfort” value (Human Subjects [5]; Day 7) was 10 and the “number of subjects that reported moderate improvements in knee discomfort” value (Human Subjects [5]; Day 30) was 8 subjects. The “number of subjects that reported definite improvements in knee discomfort” value (Human Subjects [5]; Day 30, comparable to placebo) was 8, the “knee-related quality of life scores” value (Human Subjects [6]; [8]) was “no statistically significant differences” and the “knee-related quality of life scores” value (Human Subjects [6]; within-group, Day 7 vs Day 0, p=0.002) was “increase”. For the same compound, the “knee-related quality of life scores” value (Human Subjects [6]; within-group, Day 30 vs Day 0, p<0.001) was “increase”, the “average minutes per week for aerobic exercise” value (Human Subjects [7]; [8]) was “no statistically significant differences” and the “average minutes per week for stretching exercise” value (Human Subjects [7]; [8]) was “no statistically significant differences”. The time spent stretching (Human Subjects [7]; within-group, after 30 days of supplementation, p=0.066) was “non-statistically significant yet clinically significant increase” and the “average minutes per week for aerobic exercise” value (Human Subjects [7]; [9]) was “no statistically significant changes”.

Reference: patent publication US10058524B2, “Methods for improving joint function” (Tersus Life Sciences, LLC, priority 2015, dated 2018)
